test: method code SF, from PMID: 5081587

Structure (SMILES)	logP
CN(C)/N=N/c1nc[nH]c1C(N)=O	-0.24
O=P1(N(CCCl)CCCl)NCCCO1 (stereo not drawn)	0.63
O=NN(CCCl)C(=O)NC1C=CCCC1 (stereo not drawn)	2.45
O=NN(CCCl)C(=O)NC1CCCC1	2.19
O=NN(CCCl)C(=O)NC1CC2CCC1C2 (stereo not drawn)	2.98
O=NN(CCCl)C(=O)NC1CSCSC1	2.08

Next, values leading:

logP	Structure (SMILES)
0.19	O=NN(CCCl)C(=O)NC1CCS(=O)(=O)CC1
1.43	O=NN(CCF)C(=O)NC1CCSCC1
2.73	O=NN(CCCl)C(=O)NC1CCCCC1Cl (stereo not drawn)
1.54	O=NN(CCF)C(=O)NC1CSCSC1
2.07	O=NN(CCCl)C(=O)NC1CCSCC1
1.53	O=NN(CCCl)C(=O)NCCCl
0.37	O=NN(CCCl)C(=O)NC1CCC(=O)NC1=O (stereo not drawn)

From the SangsterLogP compilation
